Test results published in patent US20220378889A1, “NEO-EPITOPE VACCINES AND METHODS OF TREATING CANCER” (Epivax Therapeutics Inc., priority 2019, published 2022).

Assays:
[1] = tested on: CT26 murine colon tumor cells; assay: CT26 tumor growth with or without poly-ICLC (Example 13); type: in vivo, BALB/c mice; conditions: day 25 post-tumor implantation; sc twice per week for three weeks from day 4
Experimental: The goal of this experiment was to determine the requirement for the inclusion of the adjuvant poly-ICLC in a peptide vaccine containing ANCER™ selected neoantigens. For this experiment, female BALB/c mice were implanted subcutaneously with 3×10^5 CT26 murine colon tumor cells. Tumor growth was monitored by caliper measurement and mice were sacrificed 45 days after tumor implantation or when tumor volumes reached 2000 mm^3, whichever came first.
Four vaccine groups were tested (n=10 mice/group):
Group 2=PBS with 50 μg poly-ICLC
Group 3=20 ANCER™ selected (uncapped) peptides with 50 μg poly-ICLC
Group 4=20 ANCER™ selected (uncapped) peptides only
Peptide vaccines were comprised of 20 different ANCER™ selected peptides at a concentration of 5 μg/peptide for a total dose of 100 μg peptide per immunization. Mice were immunized subcutaneously in the opposite flank from tumor implantation twice per week for three weeks, starting at day 4 post-tumor implantation.

CT26 tumor cells = assay: CT26 tumor growth and survival after vaccination (Example 1); conditions: N=10 mice per group
Experimental: Mice were separated into three groups: 1) PBS control; 2) poly-ICLC (vehicle); 3) ANCER™-selected CT26 Neoantigen Peptides+poly-ICLC. • Group 1: PBS, sc injections at days 5, 8, 12, 15, 19, 22, and 26. • Group 2: poly-ICLC, 50 μg, sc injections at days 5, 8, 12, 15, 19, 22, and 26. • Group 3: 5 μg/ANCER™-selected CT26 Neoantigen Peptide (100 μg total ANCER™-selected CT26 Neoantigen Peptides)+50 μg poly-ICLC, sc injections at days 5, 8, 12, 15, 19, 22, and 26.
All mice (N=10 mice per group) were injected 3*10^5 CT26 tumor cells in 0% Matrigel at day 0. Mice were sacrificed once the tumor volume reached 2,000 mm^3 or at day 45, whichever came first.

Substance: poly-ICLC
- control of tumor growth relative to PBS / poly-ICLC alone [1]: no difference in tumor growth kinetics
- mice reaching endpoint (tumor volume of at least 2,000 mm^3) by day 28 (CT26 tumor cells): 60%
